Counter-ions that a name gives are not always drawn. ± gives the uncertainty stated by the source.
System: HepG2 (L1.3 5'UTR promoter firefly luciferase reporter)
Test: L1 promoter activity (FLuc/RLuc) relative to DMSO vehicle control (% of control); higher = stronger L1 promoter activation
Protocol: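 HepG2 cells in 96-well plates were cotransfected with pGL4.11-L1.3 5'UTR (firefly luciferase driven by the human L1.3 5'UTR promoter) and pGL4.74 (HSV-TK Renilla luciferase internal control), then treated with compound for 6 or 24 h. FLuc/RLuc ratio was normalised to the DMSO vehicle control (% of control); concentrations where RLuc fell below 50% of control were excluded (N.D.). Mean of at least two independent experiments in duplicate or quadruplicate.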

[1] = concentration (uM unless unit written): 100, treatment time: 6 h
[2] = concentration (uM unless unit written): 100, treatment time: 24 h
[3] = concentration (uM unless unit written): 250, treatment time: 6 h
[4] = concentration (uM unless unit written): 250, treatment time: 24 h
[5] = concentration (uM unless unit written): 500, treatment time: 6 h
[6] = concentration (uM unless unit written): 500, treatment time: 24 h
[7] = concentration (uM unless unit written): 1000, treatment time: 6 h
[8] = concentration (uM unless unit written): 1000, treatment time: 24 h
[9] = concentration (uM unless unit written): 10, treatment time: 6 h
[10] = concentration (uM unless unit written): 10, treatment time: 24 h
[11] = concentration (uM unless unit written): 1, treatment time: 6 h
[12] = concentration (uM unless unit written): 1, treatment time: 24 h
[13] = concentration (uM unless unit written): 50, treatment time: 6 h
[14] = concentration (uM unless unit written): 50, treatment time: 24 h
[15] = concentration (uM unless unit written): 2000, treatment time: 6 h
[16] = concentration (uM unless unit written): 2000, treatment time: 24 h
[17] = concentration (uM unless unit written): 200, treatment time: 6 h
[18] = concentration (uM unless unit written): 25, treatment time: 6 h
[19] = concentration (uM unless unit written): 25, treatment time: 24 h
[20] = concentration (uM unless unit written): 5, treatment time: 6 h
[21] = concentration (uM unless unit written): 5, treatment time: 24 h
[22] = concentration (uM unless unit written): 0.1, treatment time: 6 h
[23] = concentration (uM unless unit written): 0.1, treatment time: 24 h

NS(=O)(=O)c1cc(C(=O)O)c(NCc2ccco2)cc1Cl [Furosemide]
L1 promoter activity [1]: 104 ± 28 | L1 promoter activity [2]: 103 ± 24 | L1 promoter activity [3]: 97.3 ± 11 | L1 promoter activity [4]: 96.2 ± 8.4 | L1 promoter activity [5]: 96.9 ± 5.2 | L1 promoter activity [6]: 91.2 ± 6.5 | L1 promoter activity [7]: 89.1 ± 16 | L1 promoter activity [8]: 60.4 ± 2.4

CC(C)(Oc1ccc(CCNC(=O)c2ccc(Cl)cc2)cc1)C(=O)O [Bezafibrate]
L1 promoter activity [9]: 115 ± 13 | L1 promoter activity [10]: 105 ± 4.7 | L1 promoter activity [1]: 140 ± 11 | L1 promoter activity [2]: 133 ± 13 | L1 promoter activity [7]: 174 ± 14

CC[C@H](C)C(=O)O[C@H]1C[C@H](O)C=C2C=C[C@H](C)[C@H](CC[C@@H](O)C[C@@H](O)CC(=O)O)[C@H]21 [Pravastatin]
L1 promoter activity (concentration (uM unless unit written): 2500, treatment time: 6 h): 130 ± 8.2 | L1 promoter activity (concentration (uM unless unit written): 2500, treatment time: 24 h): 102 ± 7.9

CC(=O)Oc1ccccc1C(=O)O [Acetylsalicylic acid]
L1 promoter activity [11]: 103 ± 7.2 | L1 promoter activity [12]: 98.7 ± 9.5 | L1 promoter activity (concentration (uM unless unit written): 3, treatment time: 6 h): 115 ± 11 | L1 promoter activity (concentration (uM unless unit written): 3, treatment time: 24 h): 88.3 ± 11 | L1 promoter activity [9]: 107 ± 3.8 | L1 promoter activity [10]: 105 ± 9.7 | L1 promoter activity [13]: 106 ± 8.5 | L1 promoter activity [14]: 98.2 ± 29 | L1 promoter activity [1]: 123 ± 23 | L1 promoter activity [3]: 112 ± 13 | L1 promoter activity [4]: 105 ± 8.4 | L1 promoter activity [5]: 114 ± 14 | L1 promoter activity [6]: 86 ± 5.1 | L1 promoter activity [7]: 107 ± 12 | L1 promoter activity [8]: 91.3 ± 6 | L1 promoter activity [15]: 95.4 ± 8 | L1 promoter activity [16]: 67.7 ± 5.9 | L1 promoter activity (concentration (uM unless unit written): 3000, treatment time: 6 h): 105 ± 4 | L1 promoter activity (concentration (uM unless unit written): 3000, treatment time: 24 h): 53.3 ± 2.5 | L1 promoter activity (concentration (uM unless unit written): 5000, treatment time: 6 h): 111 ± 15 | L1 promoter activity (concentration (uM unless unit written): 5000, treatment time: 24 h): 40.8 ± 1.2

CN(Cc1cnc2nc(N)nc(N)c2n1)c1ccc(C(=O)N[C@@H](CCC(=O)O)C(=O)O)cc1 [Methotrexate]
L1 promoter activity [9]: 86.8 ± 9.6 | L1 promoter activity [10]: 112 ± 36 | L1 promoter activity [1]: 93.4 ± 13 | L1 promoter activity [2]: 108 ± 48 | L1 promoter activity [17]: 93.6 ± 12 | L1 promoter activity (concentration (uM unless unit written): 200, treatment time: 24 h): 142 ± 41

NC1=NCC2c3ccccc3Cc3ccccc3N12 (stereo not given) [Epinastine hydrochloride]
L1 promoter activity [1]: 93.6 ± 15 | L1 promoter activity [2]: 85.9 ± 26 | L1 promoter activity [17]: 77.8 ± 12 | L1 promoter activity [5]: 27.1 ± 3.8

CC(=O)[C@H]1CC[C@H]2[C@@H]3CCC4=CC(=O)CC[C@]4(C)[C@H]3CC[C@]12C [Progesterone]
L1 promoter activity [18]: 101 ± 7.1 | L1 promoter activity [19]: 81.7 ± 12 | L1 promoter activity [13]: 90.4 ± 15 | L1 promoter activity [14]: 67.8 ± 7.1 | L1 promoter activity [1]: 73.7 ± 6.7

CN(C)CCC(c1ccc(Cl)cc1)c1ccccn1 (racemic) [(±)-Chlorpheniramine maleate salt]
L1 promoter activity [13]: 91.1 ± 9.6 | L1 promoter activity [14]: 96.2 ± 19 | L1 promoter activity [1]: 101 ± 9.2 | L1 promoter activity [2]: 86.4 ± 8.2 | L1 promoter activity [5]: 84 ± 3.3

CCOC(=O)C(C)(C)Oc1ccc(Cl)cc1 [Clofibrate]
L1 promoter activity [9]: 113 ± 11 | L1 promoter activity [10]: 112 ± 7.9 | L1 promoter activity [1]: 102 ± 11 | L1 promoter activity [2]: 100 ± 9.5 | L1 promoter activity [7]: 106 ± 17 | L1 promoter activity [8]: 132 ± 23

COc1ccc2c(c1)c(CC(=O)O)c(C)n2C(=O)c1ccc(Cl)cc1 [Indometacin]
L1 promoter activity [3]: 99.1 ± 10 | L1 promoter activity [4]: 83 ± 11 | L1 promoter activity [5]: 92.6 ± 13 | L1 promoter activity [6]: 59.3 ± 6.8 | L1 promoter activity [7]: 67.2 ± 10

Nc1nc(=S)c2[nH]cnc2[nH]1 [6-Thioguanine]
L1 promoter activity (concentration (uM unless unit written): 2.5, treatment time: 6 h): 126 ± 16 | L1 promoter activity (concentration (uM unless unit written): 2.5, treatment time: 24 h): 98.6 ± 12 | L1 promoter activity [20]: 108 ± 17 | L1 promoter activity [21]: 102 ± 14 | L1 promoter activity [9]: 104 ± 4.2 | L1 promoter activity [10]: 97.3 ± 11

CCOC(=O)[C@@]1(CCCCCCOc2ccc(Cl)cc2)CO1 [Etomoxir]
L1 promoter activity [13]: 127 ± 11 | L1 promoter activity [14]: 111 ± 15 | L1 promoter activity [1]: 147 ± 12 | L1 promoter activity [2]: 143 ± 17 | L1 promoter activity [5]: 181 ± 23

ClC(Cl)(Cl)Cl [Carbon tetrachloride]
L1 promoter activity [5]: 99.7 ± 5.5 | L1 promoter activity [6]: 91.3 ± 3.6 | L1 promoter activity [7]: 111 ± 5.9 | L1 promoter activity [8]: 90.7 ± 12 | L1 promoter activity [15]: 108 ± 8.1 | L1 promoter activity [16]: 98.4 ± 8.2

CC(=O)CC(c1ccccc1)c1c(O)c2ccccc2oc1=O (stereo not given) [Warfarin]
L1 promoter activity [18]: 98.9 ± 11 | L1 promoter activity [19]: 85 ± 5.2 | L1 promoter activity [13]: 89.5 ± 12 | L1 promoter activity [14]: 85.8 ± 14 | L1 promoter activity [1]: 91.7 ± 11 | L1 promoter activity [2]: 74.2 ± 9.4 | L1 promoter activity [5]: 90.8 ± 25 | L1 promoter activity [6]: 64.1 ± 6.6

CC(CN1c2ccccc2Sc2ccccc21)N(C)C (stereo not given) [Promethazine hydrochloride]
L1 promoter activity [13]: 73.9 ± 13

C=C[C@@]1(C)CC(=O)[C@]2(O)[C@@]3(C)[C@@H](O)CCC(C)(C)[C@@H]3[C@H](O)[C@H](OC(C)=O)[C@@]2(C)O1 [Forskolin]
L1 promoter activity [18]: 88.6 ± 4.5 | L1 promoter activity [19]: 59.9 ± 9 | L1 promoter activity [13]: 85.9 ± 4 | L1 promoter activity [14]: 59 ± 6.1 | L1 promoter activity [1]: 89.2 ± 7.9 | L1 promoter activity [2]: 52 ± 4.8

CCOC(=O)CC(O)C(=O)OCC (stereo not given) [Diethyl malate]
L1 promoter activity (concentration (uM unless unit written): 375, treatment time: 6 h): 127 ± 13 | L1 promoter activity (concentration (uM unless unit written): 750, treatment time: 6 h): 159 ± 18

CC[C@@]1(O)C(=O)OCc2c1cc1n(c2=O)Cc2cc3ccccc3nc2-1 [Camptothecin]
L1 promoter activity (concentration (uM unless unit written): 0.05, treatment time: 6 h): 110 ± 17 | L1 promoter activity (concentration (uM unless unit written): 0.05, treatment time: 24 h): 142 ± 21 | L1 promoter activity [22]: 98.1 ± 16 | L1 promoter activity [23]: 135 ± 21 | L1 promoter activity (concentration (uM unless unit written): 0.3, treatment time: 6 h): 103 ± 22 | L1 promoter activity (concentration (uM unless unit written): 0.3, treatment time: 24 h): 152 ± 13

COC(=O)[C@H](c1ccccc1Cl)N1CCc2sccc2C1 [Clopidogrel]
L1 promoter activity [9]: 96.7 ± 8.6 | L1 promoter activity [10]: 113 ± 5.2 | L1 promoter activity [18]: 98.5 ± 12 | L1 promoter activity [19]: 113 ± 14 | L1 promoter activity [13]: 92.9 ± 6 | L1 promoter activity [14]: 110 ± 9.2 | L1 promoter activity [1]: 84.6 ± 4.5 | L1 promoter activity [2]: 107 ± 12

C[C@H](CCC(=O)O)C[C@H](C)C[C@H](C)C(=O)/C=C(\O)[C@H](C)C[C@H](C)C/C=C/[C@@H](C)[C@@H](O)[C@@H](C)[C@@H](O)C[C@@H]1CC[C@@](C)([C@H]2CC[C@@](C)([C@@H](C)O)O2)O1 [Ionomycin]
L1 promoter activity [20]: 77.1 ± 5 | L1 promoter activity [21]: 79.5 ± 15 | L1 promoter activity [9]: 60 ± 14 | L1 promoter activity [10]: 58.1 ± 11 | L1 promoter activity (concentration (uM unless unit written): 20, treatment time: 6 h): 60.5 ± 11 | L1 promoter activity (concentration (uM unless unit written): 20, treatment time: 24 h): 36.9 ± 6.4

COC(=O)C1=C(C)NC(C)=C(C(=O)OC)C1c1ccccc1[N+](=O)[O-] [Nifedipine]
L1 promoter activity [9]: 96.1 ± 10 | L1 promoter activity [10]: 104 ± 8.8 | L1 promoter activity [18]: 98.4 ± 2.3 | L1 promoter activity [19]: 126 ± 5.6 | L1 promoter activity [13]: 97.2 ± 12 | L1 promoter activity [14]: 104 ± 7 | L1 promoter activity [1]: 88.6 ± 24 | L1 promoter activity [2]: 91.2 ± 2.6

C[C@]12CC[C@@H]3c4ccc(O)cc4CC[C@H]3[C@@H]1CC[C@@H]2O [17β-Estradiol]
L1 promoter activity [18]: 101 ± 6.5 | L1 promoter activity [19]: 104 ± 11 | L1 promoter activity [13]: 119 ± 8.4 | L1 promoter activity [14]: 103 ± 16 | L1 promoter activity [1]: 107 ± 7.5 | L1 promoter activity [2]: 102 ± 15

NS(=O)(=O)c1cc2c(cc1Cl)NC(C(Cl)Cl)NS2(=O)=O (stereo not given) [Trichlormethiazide]
L1 promoter activity [1]: 103 ± 10 | L1 promoter activity [2]: 66.9 ± 13 | L1 promoter activity [3]: 108 ± 17 | L1 promoter activity [4]: 59.6 ± 9.6 | L1 promoter activity [5]: 102 ± 6.6 | L1 promoter activity [7]: 99.7 ± 27

CC1=C(CC(=O)O)c2cc(F)ccc2/C1=C\c1ccc([S+](C)[O-])cc1 (stereo not given) [Sulindac]
L1 promoter activity [3]: 218 ± 44

CN1CCC(=C2c3ccccc3CC(=O)c3sccc32)CC1 [Ketotifen fumarate salt]
L1 promoter activity [13]: 90.4 ± 6.5 | L1 promoter activity [14]: 89.9 ± 4.6 | L1 promoter activity [1]: 92.3 ± 7.8 | L1 promoter activity [2]: 83.7 ± 8 | L1 promoter activity [17]: 80.3 ± 4.5

C=C1[C@@H](C)[C@H]2[C@H](Cc3ccccc3)NC(=O)[C@]23[C@H](OC(C)=O)/C=C/[C@@](C)(O)C(=O)[C@@H](C)C/C=C/[C@H]3[C@@H]1O [Cytochalasin D]
L1 promoter activity [22]: 110 ± 13 | L1 promoter activity [23]: 106 ± 11 | L1 promoter activity (concentration (uM unless unit written): 0.5, treatment time: 6 h): 101 ± 7.4 | L1 promoter activity (concentration (uM unless unit written): 0.5, treatment time: 24 h): 128 ± 8.5 | L1 promoter activity [11]: 106 ± 12 | L1 promoter activity [12]: 167 ± 16 | L1 promoter activity [9]: 98.6 ± 13 | L1 promoter activity [10]: 295 ± 20

O=P1(N(CCCl)CCCl)NCCCO1 (stereo not given) [Cyclophosphamide]
L1 promoter activity (concentration (uM unless unit written): 10000, treatment time: 6 h): 96.3 ± 14 | L1 promoter activity (concentration (uM unless unit written): 10000, treatment time: 24 h): 95.3 ± 11 | L1 promoter activity (concentration (uM unless unit written): 20000, treatment time: 6 h): 93.6 ± 22 | L1 promoter activity (concentration (uM unless unit written): 20000, treatment time: 24 h): 77.9 ± 4.5 | L1 promoter activity (concentration (uM unless unit written): 40000, treatment time: 6 h): 98.3 ± 8.4

— the supplement of paper PMC3770661
